The NIST ThermoML archive (doi:10.1007/s10765-010-0766-0)
Numbers after ± are expanded uncertainties.

Assay: molar heat capacity at constant volume; wn = mass fraction of the nth substance listed
Conditions: Liquid, Vacuum adiabatic calorimetry, w2 = 0.4981

FC(F)C(F)(F)F [pentafluoroethane] + FCF
Conditions | molar heat capacity at constant volume [J/K/mol]
332.15 K, 7002 kPa | 71.46 ± 3.3
333.15 K, 7333 kPa | 71.39 ± 3.3
333.15 K, 7355 kPa | 71.82 ± 3.3
333.15 K, 7370 kPa | 69.13 ± 3.2
334.15 K, 7700 kPa | 71.17 ± 3.3
334.15 K, 7723 kPa | 71.02 ± 3.2
334.15 K, 7736 kPa | 71.24 ± 3.3
335.15 K, 8069 kPa | 71.02 ± 3.2
335.15 K, 8090 kPa | 72.62 ± 3.3
335.15 K, 8104 kPa | 70.51 ± 3.2
336.15 K, 8438 kPa | 70.73 ± 3.3
336.15 K, 8457 kPa | 69.5 ± 3.1
336.15 K, 8472 kPa | 70.88 ± 3.3
337.15 K, 8807 kPa | 71.02 ± 3.4
337.15 K, 8826 kPa | 71.53 ± 3.2
337.15 K, 8840 kPa | 69.42 ± 3.3
338.15 K, 9176 kPa | 71.02 ± 3.2
338.15 K, 9194 kPa | 71.39 ± 3.2
338.15 K, 9209 kPa | 69.42 ± 3.1
339.15 K, 9546 kPa | 70.66 ± 3.6
339.15 K, 9563 kPa | 71.39 ± 3.2
339.15 K, 9579 kPa | 69.57 ± 3.5
340.15 K, 9916 kPa | 70.3 ± 3.2
340.15 K, 9933 kPa | 70.37 ± 3.2
340.15 K, 9949 kPa | 68.91 ± 3.1
341.15 K, 10286 kPa | 70.44 ± 3.2
341.15 K, 10302 kPa | 70.95 ± 3.2
341.15 K, 10320 kPa | 70.15 ± 3.3
342.15 K, 10657 kPa | 69.79 ± 3.5
342.15 K, 10672 kPa | 70.59 ± 3.2
342.15 K, 10691 kPa | 68.55 ± 3.4
343.15 K, 11028 kPa | 70.15 ± 3.2
343.15 K, 11043 kPa | 71.46 ± 3.2
343.15 K, 11061 kPa | 70.08 ± 3.2
344.15 K, 11399 kPa | 70.08 ± 3.3
344.15 K, 11413 kPa | 70.59 ± 3.2
344.15 K, 11431 kPa | 68.99 ± 3.2
345.15 K, 6187 kPa | 86.29 ± 3.9
345.15 K, 11770 kPa | 69.79 ± 3.1
345.15 K, 11784 kPa | 71.39 ± 3.2
345.15 K, 11802 kPa | 69.35 ± 3.1
346.15 K, 6420 kPa | 87.01 ± 3.9
346.15 K, 12143 kPa | 70.3 ± 3.2
346.15 K, 12155 kPa | 70.37 ± 3.2
346.15 K, 12174 kPa | 68.62 ± 3.1
347.15 K, 6655 kPa | 85.49 ± 3.9
347.15 K, 6657 kPa | 86.07 ± 3.9
347.15 K, 12515 kPa | 70.44 ± 3.2
347.15 K, 12527 kPa | 72.33 ± 3.3
347.15 K, 12547 kPa | 69.35 ± 3.1
348.15 K, 6890 kPa | 85.63 ± 3.9
348.15 K, 6893 kPa | 86.51 ± 3.9
348.15 K, 12887 kPa | 69.06 ± 3.1
348.15 K, 12899 kPa | 70.15 ± 3.2
348.15 K, 12919 kPa | 68.84 ± 3.1
349.15 K, 7127 kPa | 83.74 ± 3.8
349.15 K, 7130 kPa | 86.51 ± 3.9
349.15 K, 13259 kPa | 69.86 ± 3.2
349.15 K, 13271 kPa | 70.95 ± 3.2
349.15 K, 13292 kPa | 69.42 ± 3.2
350.15 K, 7364 kPa | 85.2 ± 3.9
350.15 K, 7368 kPa | 84.47 ± 3.8
350.15 K, 13631 kPa | 69.42 ± 3.1
350.15 K, 13643 kPa | 70.15 ± 3.2
350.15 K, 13664 kPa | 69.28 ± 3.1
351.15 K, 7602 kPa | 84.11 ± 3.8
351.15 K, 7606 kPa | 85.42 ± 3.9
351.15 K, 14004 kPa | 70.08 ± 3.2
351.15 K, 14015 kPa | 70.73 ± 3.2
351.15 K, 14036 kPa | 68.48 ± 3.1
352.15 K, 7841 kPa | 83.23 ± 3.8
352.15 K, 7845 kPa | 84.11 ± 3.8
352.15 K, 14377 kPa | 69.06 ± 3.1
352.15 K, 14387 kPa | 70.22 ± 3.2
352.15 K, 14409 kPa | 68.84 ± 3.1
353.15 K, 8080 kPa | 82.36 ± 3.7
353.15 K, 8084 kPa | 83.16 ± 3.8
353.15 K, 14750 kPa | 70.08 ± 3.2
353.15 K, 14761 kPa | 71.46 ± 3.2
353.15 K, 14783 kPa | 68.41 ± 3.1
354.15 K, 8320 kPa | 83.38 ± 3.8
354.15 K, 8324 kPa | 83.89 ± 3.8
354.15 K, 15123 kPa | 69.5 ± 3.1
354.15 K, 15133 kPa | 70.59 ± 3.2
354.15 K, 15157 kPa | 68.48 ± 3.1
355.15 K, 8560 kPa | 82.73 ± 3.7
355.15 K, 8565 kPa | 84.62 ± 3.8
355.15 K, 15496 kPa | 69.64 ± 3.1
355.15 K, 15507 kPa | 70.59 ± 3.2
355.15 K, 15531 kPa | 69.64 ± 3.1
356.15 K, 8801 kPa | 83.45 ± 3.8
356.15 K, 8806 kPa | 82.87 ± 3.7
356.15 K, 15869 kPa | 70.59 ± 3.2
356.15 K, 15880 kPa | 69.93 ± 3.1
356.15 K, 15904 kPa | 68.99 ± 3.3
